Laboratory results reported in PMC7093416, “Selective USP7 inhibition elicits cancer cell killing through a p53-dependent mechanism” (Scientific Reports, 2020).
Values joined by “and” are separate entries in the source; they are usually repeats but may differ in a detail not shown here. Equal values may be shown once.

System: panel of 484 cancer cell lines
Assay: PRISM cancer cell line profiling, 5 days
Assay type: cell-based
Parameters: Viability: scale not given here; AUC: unit not given beside the values
Experimental: Cancer cell line profiling was performed using the Broad’s PRISM platform. Cell treatment and data analysis were performed as described in Yu et al[42]. Raw Luminex signal was converted to AUC values for each cell line as described. The resulting AUC profile for each compound was modeled against DepMap using the limma package in R[71]. Because hotspot mutation analysis was performed against DepMap, TP53 annotations in Fig. 6c,d are directly from DepMap.

[1] = 8MGBA_CENTRAL_NERVOUS_SYSTEM, pert_dose 6.10E-04
[2] = 253J_URINARY_TRACT, pert_dose 6.10E-04
[3] = 786O_KIDNEY, pert_dose 6.10E-04
[4] = 8305C_THYROID, pert_dose 6.10E-04
[5] = 8505C_THYROID, pert_dose 6.10E-04
[6] = A172_CENTRAL_NERVOUS_SYSTEM, pert_dose 6.10E-04
[7] = ACHN_KIDNEY, pert_dose 6.10E-04
[8] = AN3CA_ENDOMETRIUM, pert_dose 6.10E-04
[9] = ASPC1_PANCREAS, pert_dose 6.10E-04
[10] = BC3C_URINARY_TRACT, pert_dose 6.10E-04
[11] = BECKER_CENTRAL_NERVOUS_SYSTEM, pert_dose 6.10E-04
[12] = BFTC905_URINARY_TRACT, pert_dose 6.10E-04
[13] = BFTC909_KIDNEY, pert_dose 6.10E-04
[14] = BICR6_UPPER_AERODIGESTIVE_TRACT, pert_dose 6.10E-04
[15] = BICR16_UPPER_AERODIGESTIVE_TRACT, pert_dose 6.10E-04

With `COc1ccc(C2=N[C@@H](c3ccc(Cl)cc3)[C@@H](c3ccc(Cl)cc3)N2C(=O)N2CCNC(=O)C2)c(OC(C)C)c1` [Nutlin-3A] the AUC (8MGBA_CENTRAL_NERVOUS_SYSTEM) was 1.128, the “MFI 8MGBA_CENTRAL_NERVOUS_SYSTEM” value [1] was 9934 and 14986 and 8645 and 10478 and 11554 and the Viability [1] was 0.9428. The AUC (22RV1_PROSTATE) was 1.096, the AUC (42MGBA_CENTRAL_NERVOUS_SYSTEM) was 1.109 and the “MFI 42MGBA_CENTRAL_NERVOUS_SYSTEM” value (42MGBA_CENTRAL_NERVOUS_SYSTEM, pert_dose 6.10E-04) was 4116 and 5824 and 3462 and 5974.5 and 4899. For the same compound, the AUC (253JBV_URINARY_TRACT) was 0.9024, the AUC (253J_URINARY_TRACT) was 0.9134 and the “MFI 253J_URINARY_TRACT” value [2] was 13400 and 14082 and 16791.5 and 16677.5 and 16246. The Viability [2] was 0.9155, the AUC (639V_URINARY_TRACT) was 1.087 and the AUC (647V_URINARY_TRACT) was 1.106. The “MFI 647V_URINARY_TRACT” value (647V_URINARY_TRACT, pert_dose 6.10E-04) was 28744 and 33002 and 29259 and 22669.5 and 34567, the AUC (769P_KIDNEY) was 0.9079 and the AUC (786O_KIDNEY) was 1.095. For the same compound, the “MFI 786O_KIDNEY” value [3] was 5233.5 and 8009.5 and 6751 and 6471 and 5976.5, the Viability [3] was 0.8974 and the AUC (5637_URINARY_TRACT) was 1.131. The “MFI 5637_URINARY_TRACT” value (5637_URINARY_TRACT, pert_dose 6.10E-04) was 5164 and 5198 and 5608 and 5118 and 4250, the AUC (8305C_THYROID) was 1.086 and the “MFI 8305C_THYROID” value [4] was 12807.5 and 11646.5 and 14452 and 19016 and 21699. For the same compound, the Viability [4] was 0.9334, the AUC (8505C_THYROID) was 1.09 and the “MFI 8505C_THYROID” value [5] was 8489.5 and 8271 and 7453 and 9513 and 9868. The Viability [5] was 1.233, the AUC (2313287_STOMACH) was 1.164 and the AUC (A101D_SKIN) was 0.8317. The AUC (A172_CENTRAL_NERVOUS_SYSTEM) was 0.8527, the “MFI A172_CENTRAL_NERVOUS_SYSTEM” value [6] was 9637 and 10480 and 8488 and 7646 and 8288 and the Viability [6] was 1.171. For the same compound, the AUC (A204_SOFT_TISSUE) was 0.961, the “MFI A204_SOFT_TISSUE” value (A204_SOFT_TISSUE, pert_dose 6.10E-04) was 193.5 and 222 and 295.5 and 243.5 and 208 and the AUC (A375_SKIN) was 0.8657. The “MFI A375_SKIN” value (A375_SKIN, pert_dose 6.10E-04) was 6835.5 and 8654.5 and 5268 and 5613 and 4840.5, the Viability (A375_SKIN, pert_dose 6.10E-04) was 1.106 and the AUC (A549_LUNG) was 0.859. The “MFI A549_LUNG” value (A549_LUNG, pert_dose 6.10E-04) was 9119 and 8938 and 13071.5 and 13916 and 10911, the Viability (A549_LUNG, pert_dose 6.10E-04) was 1.178 and the AUC (A673_BONE) was 1.118. The AUC (A704_KIDNEY) was 0.9164, the AUC (A2058_SKIN) was 1.115 and the “MFI A2058_SKIN” value (A2058_SKIN, pert_dose 6.10E-04) was 18135 and 19395 and 19549.5 and 22935 and 20108. For the same compound, the Viability (A2058_SKIN, pert_dose 6.10E-04) was 1.165, the AUC (A2780_OVARY) was 0.8149 and the “MFI A2780_OVARY” value (A2780_OVARY, pert_dose 6.10E-04) was 18911 and 15634 and 16575 and 14170.5 and 15163.5. For the same compound, the AUC (ABC1_LUNG) was 1.193, the AUC (ACCMESO1_PLEURA) was 1.068 and the AUC (ACHN_KIDNEY) was 0.8632. The “MFI ACHN_KIDNEY” value [7] was 12459.5 and 11580 and 11974.5 and 13015.5 and 8174, the Viability [7] was 1.255 and the AUC (AGS_STOMACH) was 1.099. For the same compound, the “MFI AGS_STOMACH” value (AGS_STOMACH, pert_dose 6.10E-04) was 33881 and 40936.5 and 34938 and 35658 and 38326, the AUC (AN3CA_ENDOMETRIUM) was 1.0825 and the “MFI AN3CA_ENDOMETRIUM” value [8] was 6120 and 10572 and 7019 and 6758 and 9328. For the same compound, the Viability [8] was 0.9599, the AUC (ASPC1_PANCREAS) was 1.065 and the “MFI ASPC1_PANCREAS” value [9] was 18934.5 and 23594 and 20951.5 and 18601 and 21238. For the same compound, the Viability [9] was 1.138, the AUC (BC3C_URINARY_TRACT) was 1.147 and the “MFI BC3C_URINARY_TRACT” value [10] was 12791.5 and 13915 and 8459 and 10458.5 and 8646. For the same compound, the Viability [10] was 1.328, the AUC (BCPAP_THYROID) was 1.122 and the AUC (BECKER_CENTRAL_NERVOUS_SYSTEM) was 1.117. The “MFI BECKER_CENTRAL_NERVOUS_SYSTEM” value [11] was 24187 and 19210 and 17010 and 22220 and 21019.5, the Viability [11] was 1.525 and the AUC (BEN_LUNG) was 1.146. The “MFI BEN_LUNG” value (BEN_LUNG, pert_dose 6.10E-04) was 7960 and 8798 and 6007 and 9178 and 9972.5, the Viability (BEN_LUNG, pert_dose 6.10E-04) was 1.0724 and the AUC (BFTC905_URINARY_TRACT) was 1.2069. The “MFI BFTC905_URINARY_TRACT” value [12] was 6936 and 8493 and 9950.5 and 8885 and 6674.5, the Viability [12] was 0.7676 and the AUC (BFTC909_KIDNEY) was 1.167. The “MFI BFTC909_KIDNEY” value [13] was 11810 and 18038 and 14602 and 12914 and 16966, the Viability [13] was 1.223 and the AUC (BHT101_THYROID) was 1.133. For the same compound, the AUC (BICR6_UPPER_AERODIGESTIVE_TRACT) was 1.14, the “MFI BICR6_UPPER_AERODIGESTIVE_TRACT” value [14] was 13342 and 11342 and 11621 and 10074.5 and 14217 and the Viability [14] was 1.497. For the same compound, the AUC (BICR16_UPPER_AERODIGESTIVE_TRACT) was 1.202, the “MFI BICR16_UPPER_AERODIGESTIVE_TRACT” value [15] was 5443.5 and 5515 and 3801.5 and 7225 and 7467 and the Viability [15] was 1.266. For the same compound, the AUC (BICR31_UPPER_AERODIGESTIVE_TRACT) was 1.128, the “MFI BICR31_UPPER_AERODIGESTIVE_TRACT” value (BICR31_UPPER_AERODIGESTIVE_TRACT, pert_dose 6.10E-04) was 17717 and 15090 and 19092 and 15830 and 14976 and the AUC (BICR56_UPPER_AERODIGESTIVE_TRACT) was 1.158. For the same compound, the AUC (BT474_BREAST) was 1.172, the AUC (BT549_BREAST) was 1.133 and the AUC (BXPC3_PANCREAS) was 1.49. It also gave an AUC (CADOES1_BONE) of 1.1262, a Viability (CADOES1_BONE, pert_dose 6.10E-04) of 1.326 and an AUC (CAKI1_KIDNEY) of 0.8906. For the same compound, the “MFI CAKI1_KIDNEY” value (CAKI1_KIDNEY, pert_dose 6.10E-04) was 21451 and 18142 and 20425 and 19719.5 and 25262.5.
